Experimental data as given in patent US6855513B1 (priority 1999, dated 2005).

Assays:
[1] = system: qsc113 (Trransmembrane protein); assay: Acyl-HSL induction of β-galactosidase in qsc113 mutant; type: cell-based, Pseudomonas aeruginosa; details: qsc113, Class II; 3OC12-HSL 2 μM, C4-HSL 5 μM
[2] = system: qsc105 (FAD-binding protein); assay: Acyl-HSL induction of β-galactosidase in qsc105 mutant; type: cell-based, Pseudomonas aeruginosa; details: qsc105, Class I; 3OC12-HSL 2 μM, C4-HSL 5 μM
qsc102 = assay: Acyl-HSL induction of β-galactosidase in qsc102 mutant; type: cell-based, Pseudomonas aeruginosa; details: for Signal response (β-galactosidase activity with signal(s) divided by activity without added signals), maximum: qsc102, Class I, 3OC12-HSL 2 μM, C4-HSL 5 μM
Method: (§1) E. coli and P. aeruginosa were routinely grown in Luria-Bertani (LB) broth or LB agar (Sambrook, et al. (1989) Molecular Cloning: a Laboratory Manual. (Cold Spring Harbor Laboratory, Cold Spring Harbor, N.Y.)), supplemented with antimicrobial agents when necessary. The antimicrobial agents were used at the following concentrations: HgCl2, 15 μg/ml in agar and 7.5 μg/ml in broth; nalidixic acid 20 μg/ml; carbenicillin, 300 μg/ml; tetracycline, 50 μg/ml for P. aeruginosa and 20 μg/ml for E. coli; and gentamicin, 100 μg/ml for P. aeruginosa and 15 μg/ml for E. coli. Synthetic acyl-HSL concentrations were 2 μM for 3OC12-HSL and 5 μM for C4-HSL, and 5-bromo4-chloro-3-indolyl-β-D-galactopyranoside (X-Gal) was used at 50 μg/ml.
Patterns of Acyl-HSL Induction of β-galactosidase Activity in qsc Mutants. The pattern of β-galactosidase expression was examined in response to acyl-HSLs in each of 47 qsc mutants identified in the initial screen. Each mutant was grown in 1 ml of MOPS (50 mM, pH 7.0) buffered LB broth containing one, the other, both, or neither acyl-HSL signal in an 18 mm culture tube at 37° C. with shaking. A mid-logarithmic phase culture was used as an inoculum and initial optical densities (ODs) at 600 nm were 0.1. Growth was monitored as OD at 600 nm and β-galactosidase activity was measured in 0.1 ml samples taken at 0, 2, 5, and 9 hours after inoculation.
One assay used the P. aeruginosa strain QSC102 (Table 3), which responds to the presence of exogenous 3-oxo-C12-HSL by inducing β-galactosidase activity up to 400-fold (Example 1). Cells were grown in the presence of a minimal concentration of 3-oxo-C12-HSL and in the presence and absence of the test compound. If the test compound interferes with signal reception, β-galactosidase activity is reduced. Interference can be a result of any of several mechanisms. The simplest is, if the test compound prevents the 3oxo-C12-HSL from binding to LasR. Alternatively, the test compound may prevent LasR from binding to DNA or interacting productively with RNA polymerase.

qsc138 = assay: Acyl-HSL induction of β-galactosidase in qsc138 mutant; type: cell-based, Pseudomonas aeruginosa; details: qsc138, Class IV; 3OC12-HSL 2 μM, C4-HSL 5 μM
[3] = system: qsc123 (9-Cis retinol dehydrogenase); assay: Acyl-HSL induction of β-galactosidase in qsc123 mutant; type: cell-based, Pseudomonas aeruginosa; details: qsc123, Class III; 3OC12-HSL 2 μM, C4-HSL 5 μM
[4] = system: qsc128 (Hydrogen cyanide synthase HcnB); type: cell-based, Pseudomonas aeruginosa; details: qsc128, Class III; 3OC12-HSL 2 μM, C4-HSL 5 μM
[5] = system: qcs117 (ACP-like protein); assay: Acyl-HSL induction of β-galactosidase in qcs117 mutant; type: cell-based, Pseudomonas aeruginosa; details: qcs117, Class III; 3OC12-HSL 2 μM, C4-HSL 5 μM
[6] = system: qsc135 (Cytochrome C precursor); assay: Acyl-HSL induction of β-galactosidase in qsc135 mutant; type: cell-based, Pseudomonas aeruginosa; details: qsc135, Class IV; 3OC12-HSL 2 μM, C4-HSL 5 μM
[7] = system: qsc122A&B (Cytochrome p450); details: Class III, 3OC12-HSL 2 μM, C4-HSL 5 μM
qsc108 (ORF 5) = assay: Acyl-HSL induction of β-galactosidase in qsc108 mutant; type: cell-based, Pseudomonas aeruginosa; details: qsc108, Class II; 3OC12-HSL 2 μM, C4-HSL 5 μM
qsc106A&B = assay: Acyl-HSL induction of β-galactosidase in qsc106A&B mutants; type: cell-based, Pseudomonas aeruginosa; details: Class I, 3OC12-HSL 2 μM, C4-HSL 5 μM
[8] = system: P. aeruginosa lasI mutant biofilm; details: flow-through chamber; resistance to 0.2% sodium dodecyl sulfate; cited from earlier work
[9] = system: qsc104 (Polyamine binding protein); assay: Acyl-HSL induction of β-galactosidase in qsc104 mutant; type: cell-based, Pseudomonas aeruginosa; details: qsc104, Class I; 3OC12-HSL 2 μM, C4-HSL 5 μM
qsc114 = assay: Acyl-HSL induction of β-galactosidase in qsc114 mutant; type: cell-based, Pseudomonas aeruginosa; details: qsc114, Class II; 3OC12-HSL 2 μM, C4-HSL 5 μM
[10] = system: qsc121 (3-Oxoacyl ACP synthase); assay: Acyl-HSL induction of β-galactosidase in qsc121 mutant; type: cell-based, Pseudomonas aeruginosa; details: qsc121, Class III; 3OC12-HSL 2 μM, C4-HSL 5 μM
[11] = system: lasB-lacZ chromosomal fusion; assay: Acyl-HSL response of lasB-lacZ chromosomal fusion in P. aeruginosa PAO-MW1; type: cell-based, Pseudomonas aeruginosa; details: late response
Method: as §1
A mutant strain, P. aeruginosa PAO-MW 10, which contains a lacZ reporter in the chromosomal lasB gene was constructed by introduction of pMW300 into PAO-MW1 by triparental mating as described above. Exconjugants resistant to gentamicin and sensitive to chloramphenicol were selected as potential recombinants.
Patterns of Acyl-HSL Induction of β-galactosidase Activity in qsc Mutants. The pattern of β-galactosidase expression was examined in response to acyl-HSLs in each of 47 qsc mutants identified in the initial screen. […] Growth was monitored as OD at 600 nm and β-galactosidase activity was measured in 0.1 ml samples taken at 0, 2, 5, and 9 hours after inoculation.

SMILES	Signal response (β-galactosidase activity with signal(s) divided by activity without added signals), maximum [1]	Signal response (β-galactosidase activity with signal(s) divided by activity without added signals), maximum [2]	Signal response (β-galactosidase activity with signal(s) divided by activity without added signals), maximum (qsc102)	Induction of β-galactosidase activity (qsc102; strain QSC102, exogenous signal)	Signal response (β-galactosidase activity with signal(s) divided by activity without added signals), maximum (qsc138)	Signal response (β-galactosidase activity with signal(s) divided by activity without added signals), maximum [3]	Signal response (β-galactosidase activity with signal(s) divided by activity without added signals), maximum [4]	Signal response (β-galactosidase activity with signal(s) divided by activity without added signals), maximum [5]	Signal response (β-galactosidase activity with signal(s) divided by activity without added signals), maximum [6]	Signal response (β-galactosidase activity with signal(s) divided by activity without added signals), maximum [7]	Signal response (β-galactosidase activity with signal(s) divided by activity without added signals), maximum (qsc108 (ORF 5))	Signal response (β-galactosidase activity with signal(s) divided by activity without added signals), maximum (qsc106A&B)	Biofilm phenotype after adding signal back to lasI mutant cells [8]	Signal response (β-galactosidase activity with signal(s) divided by activity without added signals), maximum [9]	Signal response (β-galactosidase activity with signal(s) divided by activity without added signals), maximum (qsc114)	Signal response (β-galactosidase activity with signal(s) divided by activity without added signals), maximum [10]	Stimulation of lasB-lacZ fusion over background [11]
CCCCCCCCCC(=O)CC(=O)N[C@H]1CCOC1=O [3OC12-HSL, N-(3-oxododecanoyl) homoserine lactone]	5	40	350	up to 400 fold	3	14	19	22	3	2	13	9	wild type phenotype was restored	7	9	13	3 fold
CCCC(=O)N[C@H]1CCOC1=O [C4-HSL, butanoyl-HSL]	1	1	1	–	5	28	12	22	1	10	1	1	–	2	1	27	–
